pIC50: −log10 of the molar value.

For orientation: pIC50 means the negative decadic logarithm of the IC50, by convention in mol/L. Low readings indicate a large IC50, high ones a small IC50.

human KDR protein in HEK-293 cells, sequence (P35968 20-1356): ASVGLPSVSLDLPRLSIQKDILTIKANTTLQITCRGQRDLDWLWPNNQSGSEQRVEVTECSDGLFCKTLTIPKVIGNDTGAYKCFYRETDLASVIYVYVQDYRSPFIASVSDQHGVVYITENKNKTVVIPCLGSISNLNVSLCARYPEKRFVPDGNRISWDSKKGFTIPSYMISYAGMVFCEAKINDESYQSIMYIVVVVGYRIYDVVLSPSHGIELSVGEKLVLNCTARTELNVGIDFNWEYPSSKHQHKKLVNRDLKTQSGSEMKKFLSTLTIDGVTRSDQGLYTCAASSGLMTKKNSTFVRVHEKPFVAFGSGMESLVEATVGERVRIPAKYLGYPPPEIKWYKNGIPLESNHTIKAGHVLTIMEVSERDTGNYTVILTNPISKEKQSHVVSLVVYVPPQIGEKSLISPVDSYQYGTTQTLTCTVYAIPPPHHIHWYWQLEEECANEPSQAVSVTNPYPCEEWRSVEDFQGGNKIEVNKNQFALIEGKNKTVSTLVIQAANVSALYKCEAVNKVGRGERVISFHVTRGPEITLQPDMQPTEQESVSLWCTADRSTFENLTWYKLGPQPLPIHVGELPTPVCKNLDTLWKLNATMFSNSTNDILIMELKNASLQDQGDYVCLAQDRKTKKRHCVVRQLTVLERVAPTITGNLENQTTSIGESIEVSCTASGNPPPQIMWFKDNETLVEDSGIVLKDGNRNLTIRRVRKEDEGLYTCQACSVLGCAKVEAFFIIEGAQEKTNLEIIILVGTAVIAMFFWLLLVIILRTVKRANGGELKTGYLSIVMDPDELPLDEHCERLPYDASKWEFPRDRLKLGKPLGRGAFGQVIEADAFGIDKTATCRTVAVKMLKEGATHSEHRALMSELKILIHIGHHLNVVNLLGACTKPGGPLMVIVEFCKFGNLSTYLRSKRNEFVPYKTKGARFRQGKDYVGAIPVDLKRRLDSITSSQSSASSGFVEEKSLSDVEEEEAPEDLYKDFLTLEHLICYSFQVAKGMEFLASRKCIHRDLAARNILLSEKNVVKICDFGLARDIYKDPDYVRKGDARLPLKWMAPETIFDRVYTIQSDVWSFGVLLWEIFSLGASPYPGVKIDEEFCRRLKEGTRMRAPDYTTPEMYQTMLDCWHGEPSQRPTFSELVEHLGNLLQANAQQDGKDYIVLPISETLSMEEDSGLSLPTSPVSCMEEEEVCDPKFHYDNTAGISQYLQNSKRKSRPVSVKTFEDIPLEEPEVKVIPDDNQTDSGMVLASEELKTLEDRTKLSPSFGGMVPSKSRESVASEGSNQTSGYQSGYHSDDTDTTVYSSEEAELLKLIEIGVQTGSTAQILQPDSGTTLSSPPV

One test concerns the target human KDR protein in HEK-293 cells (Homo sapiens (Human), UniProt P35968). The experiment in a line: KDR Cell Assay (phospho-KDR in HEK-293 cells expressing inducible KDR). Format: cell-based. The following applies: pKDR Cell HEK 10% FBS IC50, HEK-293 cells expressing inducible KDR, VEGF stimulated. The gist of the method:
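HEK-293 cells with inducible human KDR were treated with compound for 1 h in DMEM (0.25% DMSO final), then lysed. Phospho-KDR was quantified by Meso Scale immunoassay, expressed as percent of control, and IC50 taken where a 4-parameter logistic fit crossed 50 POC.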
`Cn1cc(-c2cc(-c3ccc(N4CCN(C(=O)[C@@H](CO)c5ccccc5)CC4)nc3)c3c(C#N)cnn3c2)cn1` [Example 373, (R)-4-(6-(4-(3-hydroxy-2-phenylpropanol)piperazin-1-yl)pyridin-3-yl)-6-(1-methyl-1H-pyrazol-4-yl)pyrazolo[1,5-a]pyridine-3-carbonitrile]: the pIC50 is 5.74.

`Cn1ccc(-c2cc(-c3ccc(N4CCN(Cc5ccccn5)CC4)nc3)c3c(C#N)cnn3c2)n1` [Example 588, 6-(1-methyl-1H-pyrazol-3-yl)-4-(6-(4-(pyridine-2-ylmethyl)piperazin-1-yl)pyridin-3-yl)pyrazolo[1,5-a]pyridine-3-carbonitrile] showed a pIC50 not above 5.30.

In turn, `Cn1cc(-c2cc(-c3cnc(N4CCN(Cc5ccccc5)CC4)nc3)c3c(C#N)cnn3c2)cn1` [Example 639, 4-(2-(4-benzylpiperazin-1-yl)pyrimidin-5-yl)-6-(1-methyl-1H-pyrazol-4-yl)pyrazolo[1,5-a]pyridine-3-carbonitrile] had a pIC50 of 5.33.

For the compound `Cn1cc(-c2cc(-c3ccc(N4CCN(CC5CCOCC5)CC4)nc3)c3c(C#N)cnn3c2)cn1` [Example 466, 6-(1-methyl-1H-pyrazol-4-yl)-4-(6-(4-((tetrahydro-2H-pyran-4-yl)methyl)piperazin-l-yl)pyridin-3-yl)pyrazolo[1,5-a]pyridine-3-carbonitrile], the pIC50 was 5.67.

Take `Cn1cc(-c2cc(-c3ccc(N4CCC5(CC4)CN(C(=O)OC4CCCC4)C5)nc3)c3c(C#N)cnn3c2)cn1` [Example 499, Cyclopentyl 7-(5-(3-cyano-6-(1-methyl-1H-pyrazol-4-yl)pyrazolo[1,5-a]pyridin-4-yl)pyridine-2-yl)-2,7-diazaspiro[3.5]nonane-2-carboxylate]: the pIC50 is 6.34.

On to `Cc1c(CN2CCN(c3ccc(-c4cc(-c5cnn(C)c5)cn5ncc(C#N)c45)cn3)CC2)cnn1C` [Example 435, 4-(6-(4-((1,5-dimethyl-1H-pyrazol-4-yl)methyl)piperazin-1-yl)pyridin-3-yl)-6-(1-methyl-1H-pyrazol-4-yl)pyrazolo[1,5-a]pyridine-3-carbonitrile], for which the pIC50 was 5.88.

In turn, `Cn1cc(-c2cc(-c3ccc(N4CCN(CC(F)F)CC4)nc3)c3c(C#N)cnn3c2)cn1` [Example 418, 4-(6-(4-(2,2-difluoroethyl)piperazin-1-yl)pyridin-3-yl)-6-(1-methyl-1H-pyrazol-4-yl)pyrazolo[1,5-a]pyridine-3-carbonitrile] gave a pIC50 of 5.82.

Take `Cn1cc(-c2cc(-c3ccc(N4CCC(Nc5ccccc5)CC4)nc3)c3c(C#N)cnn3c2)cn1` [Example 507, 6-(1-methyl-1H-pyrazol-4-yl)-4-(6-(4-(phenylamino)piperidin-1-yl)pyridin-3-yl)pyrazolo[1,5-a]pyridine-3-carbonitrile]: the pIC50 was 7.60.

`Cn1cc(-c2cc(-c3ccc(N4CC5CC(C4)N5Cc4ccccn4)nc3)c3c(C#N)cnn3c2)cn1` [Example 693, 6-(1-methyl-1H-pyrazol-4-yl)-4-(6-(6-(pyridin-2-ylmethyl)-3,6-diazabicyclo[3.1.1]heptan-3-yl)pyridin-3-yl)pyrazolo[1,5-a]pyridine-3-carbonitrile]: the pIC50 is 5.99.

On to `Cn1cc(-c2cc(-c3ccc(N4CCN(C5CCOC5)CC4)nc3)c3c(C#N)cnn3c2)cn1` (stereo not drawn) [Example 505, 6-(1-methyl-1H-pyrazol-4-yl)-4-(6-(4-(tetrahydrofuran-3-yl)piperazin-1-yl)pyridin-3-yl)pyrazolo[1,5-a]pyridine-3-carbonitrile bis(2,2,2-trifluoroacetate)], for which the pIC50 was 5.88.

As to `Cn1cc(-c2cc(-c3ccc(N4CC5(CCOCC5)C4)nc3)c3c(C#N)cnn3c2)cn1` [Example 527, 4-(6-(7-oxa-2-azaspiro[3.5]nonan-2-yl)pyridin-3-yl)-6-(1-methyl-1H-pyrazol-4-yl)pyrazolo[1,5-a]pyridine-3-carbonitrile 2,2,2-trifluoroacetate], the pIC50 was 6.04.

Staying with this test, now noted: pKDR Cell HEK 10% FBS IC50, HEK-293 cells expressing inducible KDR, VEGF stimulated, 10% FBS.
As to `Cn1cc(-c2cc(-c3ccc(N4CCN(C(=O)c5cc(C6CC6)[nH]n5)CC4)nc3)c3c(C#N)cnn3c2)cn1` [Example 370, 4-(6-(4-(5-cyclopropyl-1H-pyrazole-3-carbonyl)piperazin-1-yl)pyridin-3-yl)-6-(1-methyl-1H-pyrazol-4-yl)pyrazolo[1,5-a]pyridine-3-carbonitrile bis(2,2,2-trifluoroacetate)], the pIC50 was 7.53.

Compound `CO[C@H]1C[C@@H](NC(=O)C2CCN(c3ccc(-c4cc(-c5cnn(C)c5)cn5ncc(C#N)c45)cn3)CC2)C1` [Example 241, 1-(5-(3-cyano-6-(1-methyl-1H-pyrazol-4-yl)pyrazolo[1,5-a]pyridin-4-yl)pyridin-2-yl)-N-((1s,3s)-3-methoxycyclobutyl) piperidine-4-carboxamide] showed a pIC50 of 5.74.

As to `COc1ccc(C2(C(=O)N3CCN(c4ccc(-c5cc(-c6cnn(C)c6)cn6ncc(C#N)c56)cn4)CC3)CC2)cc1` [Example 344, 4-(6-(4-(1-(4-methoxyphenyl)cyclopropanecarbonyl)piperazin-1-yl)pyridin-3-yl)-6-(1-methyl-1H-pyrazol-4-yl)pyrazolo[1,5-a]pyridine-3-carbonitrile], the pIC50 is 6.41.

In the case of `C[C@@H](C(=O)N1CCN(c2ccc(-c3cc(-c4cnn(C)c4)cn4ncc(C#N)c34)cn2)CC1)c1ccccc1` [Example 14, (R)-6-(1-methyl-1H-pyrazol-4-yl)-4-(6-(4-(2-phenylpropanoyl)piperazin-1-yl)pyridin-3-yl)pyrazolo[1,5-a]pyridine-3-carbonitrile], the pIC50 was 5.75.

`Cn1cc(-c2cc(-c3ccc(N4CCN(C(=O)[C@H](O)c5ccccc5Cl)CC4)nc3)c3ccnn3c2)cn1` [Example 320, (R)-2-(2-chlorophenyl)-2-hydroxy-1-(4-(5-(6-(1-methyl-1H-pyrazol-4-yl)pyrazolo[1,5-a]pyridin-4-yl)pyridin-2-yl)piperazin-1-yl)ethanone] gave a pIC50 not above 5.30.

`Cn1cc(-c2cc(-c3ccc(N4CCN(Cc5ccccc5)CC4)nc3)c3c(C#N)cnn3c2)cn1` [Example 139, 4-(6-(4-benzylpiperazin-1-yl)pyridin-3-yl)-6-(1-methyl-1H-pyrazol-4-yl)pyrazolo[1,5-a]pyridine-3-carbonitrile]: the pIC50 is 6.54.

The compound `Cn1cc(-c2cc(-c3ccc(N4CCN(C(=O)N[C@H]5CCOC5)CC4)nc3)c3c(C#N)cnn3c2)cn1` [Example 105, (S)-4-(5-(3-cyano-6-(1-methyl-1H-pyrazol-4-yl)pyrazolo[1,5-a]pyridin-4-yl)pyridin-2-yl)-N-(tetrahydrofuran-3-yl)piperazine-1-carboxamide] had a pIC50 of 5.94.

In turn, `CO[C@@H](C(=O)N1CCN(c2ncc(-c3cc(-c4cnn(C)c4)cn4ncc(C#N)c34)cn2)CC1)c1ccccc1` [Example 284, (R)-4-(2-(4-(2-methoxy-2-phenylacetyl)piperazin-1-yl)pyrimidin-5-yl)-6-(1-methyl-1H-pyrazol-4-yl)pyrazolo[1,5-a]pyridine-3-carbonitrile] gave a pIC50 of 6.18.

`Cn1cc(-c2cc(-c3ccc(N4CCN(C(=O)N5CCC(F)(F)CC5)CC4)nc3)c3c(C#N)cnn3c2)cn1` [Example 115, 4-(6-(4-(4,4-difluoropiperidine-1-carbonyl)piperazin-1-yl)pyridin-3-yl)-6-(1-methyl-1H-pyrazol-4-yl)pyrazolo[1,5-a]pyridine-3-carbonitrile] showed a pIC50 of 5.50.

The compound `Cn1cc(-c2cc(-c3ccc(N4CCN(C(=O)c5cccnc5)CC4)nc3)c3c(C#N)cnn3c2)cn1` [Example 73, 6-(1-methyl-1H-pyrazol-4-yl)-4-(6-(4-nicotinoylpiperazin-1-yl)pyridin-3-yl)pyrazolo[1,5-a]pyridine-3-carbonitrile] had a pIC50 of 6.53.

Compound `Cn1cc(-c2cc(-c3ccc(N4CCN(C(=O)CC(C)(C)C)C5(CC5)C4)nc3)c3c(C#N)cnn3c2)cn1` [Example 169, 4-(6-(4-(3,3-dimethylbutanoyl)-4,7-diazaspiro[2.5]octan-7-yl)pyridin-3-yl)-6-(1-methyl-1H-pyrazol-4-yl)pyrazolo[1,5-a]pyridine-3-carbonitrile] showed a pIC50 of 5.84.

As to `Cn1cc(-c2cc(-c3ccc(N4CCN(C(=O)c5ccccc5N5CCOCC5)CC4)nc3)c3c(C#N)cnn3c2)cn1` [Example 358, 6-(1-methyl-1H-pyrazol-4-yl)-4-(6-(4-(2-morpholinobenzoyl)piperazin-1-yl)pyridin-3-yl)pyrazolo[1,5-a]pyridine-3-carbonitrile bis(2,2,2-trifluoroacetate)], the pIC50 is 6.79.

In turn, `Cn1cc(-c2cc(-c3ccc(N4CCC(NC(=O)c5ccccc5)CC4)nc3)c3c(C#N)cnn3c2)cn1` [Example 184, N-(1-(5-(3-cyano-6-(1-methyl-1H-pyrazol-4-yl)pyrazolo[1,5-a]pyridin-4-yl)pyridin-2-yl)piperidin-4-yl)benzamide] gave a pIC50 of 7.12.

For the compound `Cn1cc(-c2cc(-c3cnc(N4CCN(C(=O)[C@H](O)c5ccccc5)CC4)nc3)c3c(C#N)cnn3c2)cn1` [Example 282, (R)-4-(2-(4-(2-hydroxy-2-phenylacetyl)piperazin-1-yl)pyrimidin-5-yl)-6-(1-methyl-1H-pyrazol-4-yl)pyrazolo[1,5-a]pyridine-3-carbonitrile], the pIC50 is 6.18.

For `CN(C)C(=O)N1CCN(c2ccc(-c3cc(-c4cnn(C)c4)cn4ncc(C#N)c34)cn2)CC1` [Example 132, 4-(5-(3-cyano-6-(1-methyl-1H-pyrazol-4-yl)pyrazolo[1,5-a]pyridin-4-yl)pyridin-2-yl)-N,N-dimethylpiperazine-1-carboxamide], the pIC50 was 5.94.

Consider `CO[C@@H](C(=O)N1CCN(c2ccc(-c3cc(-c4cnn(C)c4)cn4ncc(C#N)c34)cn2)CC1)C(C)C` [Example 86, (R)-4-(6-(4-(2-methoxy-3-methylbutanoyl)piperazin-1-yl)pyridin-3-yl)-6-(1-methyl-1H-pyrazol-4-yl)pyrazolo[1,5-a]pyridine-3-carbonitrile], for which the pIC50 is 6.37.

The values above are taken from patent US10023570B2 (Array BioPharma, Inc., priority 2015, dated 2018).
